Like-named read-outs stand apart in the source and are kept apart here. *1 amine or outer side, *2 acyl side, *3 side chain or, on linkers, in order; H or OH if unused. Where a SMILES comes first, the peptide text is derived from it. Bridges are numbered along the chain shown (N, C = ends). [ ]: non-standard residue; d: D form. The star is where a group is joined. hPhe(3,5-F2-4-CF3) = N[C@@H](CCc1cc(F)c(C(F)(F)F)c(F)c1)C(=O)O; X47 = CC(C)(C)CCN([C@@H](Cc1ccc(C(F)(F)F)cc1)C(=O)[*:2])[*:1]; hPhe(3-Cl-4-CF3) = N[C@@H](CCc1ccc(C(F)(F)F)c(Cl)c1)C(=O)O; NPrPhe(4-CF3) = CCCN[C@@H](Cc1ccc(C(F)(F)F)cc1)C(=O)O; NPrPhe(4-Me) = CCCN[C@@H](Cc1ccc(C)cc1)C(=O)O; NMeGly(cPent) = CN[C@H](C(=O)O)C1CCCC1; X44 = CC1(C)CN([*:1])[C@@H]1C(=O)[*:2]; Hyp = O=C(O)[C@@H]1C[C@@H](O)CN1; αMeF = C[C@](N)(Cc1ccccc1)C(=O)O; NMeD = CN[C@@H](CC(=O)O)C(=O)O; NMeL = CN[C@@H](CC(C)C)C(=O)O; Pip = O=C(O)[C@@H]1CCCCN1; Morpholide = C1CN(*)CCO1; NMeA = CN[C@@H](C)C(=O)O; Ac5c = NC1(C(=O)O)CCCC1; Aze = O=C(O)[C@@H]1CCN1; Ac4c = NC1(C(=O)O)CCC1; Sar = CNCC(=O)O
Key:
[1] = target: GDP-bound NRAS wild-type protein (Homo sapiens, UniProt P01111); experiment: Binding to NRAS by surface plasmon resonance (SPR), Single Cycle Kinetics; conditions: for NRAS/KRAS (ratio of KD value with respect to GDP-bound NRAS wild-type protein to KD value with respect to KRAS): SPR KD ratio NRAS/KRAS, class symbols; for NRAS/KRAS (ratio of KD value with respect to NRAS to KD value with respect to KRAS) / NRAS/KRAS (ratio of KD value for NRAS to KD value for KRAS): SPR, GDP-bound NRAS wild-type protein vs GDP-bound KRAS wild-type protein
GDP-bound NRAS wild-type protein, sequence (P01111 whole entry): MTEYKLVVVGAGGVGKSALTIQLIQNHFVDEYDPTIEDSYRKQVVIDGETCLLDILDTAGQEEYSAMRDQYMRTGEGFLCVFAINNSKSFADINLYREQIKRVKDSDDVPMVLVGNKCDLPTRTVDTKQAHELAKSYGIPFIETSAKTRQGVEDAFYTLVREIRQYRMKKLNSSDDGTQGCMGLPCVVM

[2] = target: GDP-bound HRAS wild-type protein (Homo sapiens, UniProt P01112); experiment: Binding to HRAS by surface plasmon resonance (SPR), Single Cycle Kinetics; conditions: for HRAS/KRAS (ratio of KD value with respect to GDP-bound HRAS wild-type protein to KD value with respect to KRAS): SPR KD ratio HRAS/KRAS, class symbols; for HRAS/KRAS (ratio of KD value with respect to HRAS to KD value with respect to KRAS) / HRAS/KRAS (ratio of KD value for HRAS to KD value for KRAS): SPR, GDP-bound HRAS wild-type protein vs GDP-bound KRAS wild-type protein
GDP-bound HRAS wild-type protein, sequence (P01112 whole entry): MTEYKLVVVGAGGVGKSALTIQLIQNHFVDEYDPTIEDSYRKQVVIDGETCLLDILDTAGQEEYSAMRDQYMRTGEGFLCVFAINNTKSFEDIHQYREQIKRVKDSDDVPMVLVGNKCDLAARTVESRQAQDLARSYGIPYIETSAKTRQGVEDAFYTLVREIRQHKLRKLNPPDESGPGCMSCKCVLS

[3] = tested on: human lung cancer strain NCI-H441;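 also: cell proliferation inhibition after four days measured by CellTiter-Glo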

SMILES	NRAS/KRAS (ratio of KD value with respect to GDP-bound NRAS wild-type protein to KD value with respect to KRAS) [1]	HRAS/KRAS (ratio of KD value with respect to GDP-bound HRAS wild-type protein to KD value with respect to KRAS) [2]	IC50 [3] [nM]	NRAS/KRAS (ratio of KD value with respect to NRAS to KD value with respect to KRAS) [1]	HRAS/KRAS (ratio of KD value with respect to HRAS to KD value with respect to KRAS) [2]	NRAS/KRAS (ratio of KD value for NRAS to KD value for KRAS) [1]	HRAS/KRAS (ratio of KD value for HRAS to KD value for KRAS) [2]	IC50 ([3]; read-out: NCI-H441 IC50, NCI-H441 cells, four days, CellTiter-Glo) [nM]
CCC[C@H]1C(=O)N[C@H]([C@@H](C)CC)C(=O)N(C)CC(=O)N(C)[C@H]2C/C=C\CCN(C2=O)[C@@H](Cc2ccc(C)cc2)C(=O)N(C)CC(=O)N[C@@H](CCc2cc(F)c(C(F)F)c(F)c2)C(=O)N2C[C@H](OCC)C[C@H]2C(=O)NC2(CC(C)(C)C2)C(=O)N(C)[C@@H](C(CC)CC)C(=O)N(C)[C@H](C(=O)N(C)C)CC(=O)N1C (stereo in doubt) [PP2783]	A (a compound having 10 or more and less than 20 is denoted as A)	A (a compound having 10 or more and less than 20 is denoted as A)	33.9	–	–	–	–	–
CCO[C@@H]1C[C@H]2C(=O)NC3(CCC3)C(=O)N(C)[C@@H](C3CCCC3)C(=O)N(C)[C@H](C(=O)N3CCOCC3)CC(=O)N(C)[C@@H](Cc3cccnc3)C(=O)N[C@@H]([C@@H](C)CC)C(=O)N(C)CC(=O)N(C)[C@H]3CCCCN(C3=O)[C@@H](Cc3ccc(C(F)(F)F)cc3)C(=O)N(C)CC(=O)N[C@@H](CCc3cc(F)c(C(F)(F)F)c(F)c3)C(=O)N2C1 [PP0718]	–	–	42.3	C (A compound having a KD ratio of 0.1 or more and less than 3 is denoted as C)	B (a compound having 3 or more and less than 10 is denoted as B)	–	–	–
CCCN1C(=O)CN(C)C(=O)[C@@H]2CCN2C(=O)[C@H]([C@@H](C)CC)NC(=O)[C@H](CC(C)C)N(C)C(=O)C[C@@H](C(=O)N2CCOCC2)N(C)C(=O)[C@H](C2CCCC2)N(C)C(=O)[C@](C)(Cc2ccccc2)NC(=O)[C@@H]2CCCN2C(=O)[C@H](CCc2cc(F)c(C(F)(F)F)c(F)c2)NC(=O)CN(C)C(=O)[C@@H]1Cc1ccc(C(F)(F)F)cc1 [PP0778] ([NMeL]I[Aze][Sar][NPrPhe(4-CF3)][Sar][hPhe(3,5-F2-4-CF3)]P[αMeF][NMeGly(cPent)][NMeD]-Morpholide; lactam N-11)	–	–	546	B (a compound having 3 or more and less than 10 is denoted as B)	B (a compound having 3 or more and less than 10 is denoted as B)	–	–	–
CCC[C@H]1C(=O)N[C@@H](C2CCCCC2)C(=O)N(C)CC(=O)N(C)[C@H]2C/C=C\CCN(C2=O)[C@@H](Cc2ccc(C)cc2)C(=O)N(C)CC(=O)N[C@@H](CCc2ccc(C(F)(F)F)c(Cl)c2)C(=O)N2C[C@H](OCC)C[C@H]2C(=O)NC2(CC(C)(C)C2)C(=O)N(C)[C@@H](CC(C)(C)C)C(=O)N(C)[C@H](C(=O)N(C)C)CC(=O)N1C [PP3018]	–	–	19.1	–	–	A (a compound having 10 or more and less than 20 is denoted as A)	B (a compound having 3 or more and less than 10 is denoted as B)	–
CC[C@H](C)[C@@H]1NC(=O)[C@H](CC(C)C)N(C)C(=O)C[C@@H](C(=O)N2CCOCC2)N(C)C(=O)[C@H](C2CCCC2)N(C)C(=O)C2(CCCC2)NC(=O)[C@@H]2CCCN2C(=O)[C@H](CCc2ccc(C(F)(F)F)c(Cl)c2)NC(=O)CN(C)C(=O)[C@H](Cc2ccc(C(F)(F)F)cc2)N(CCC(C)(C)C)C(=O)[C@@H]2CCN2C(=O)[C@H](C)N(C)C1=O [PP0113] ([NMeL]I[NMeA][Aze][X47][Sar][hPhe(3-Cl-4-CF3)]P[Ac5c][NMeGly(cPent)][NMeD]-Morpholide; lactam N-11)	–	–	7.1	–	–	C (A compound having a KD ratio of 0.1 or more and less than 3 is denoted as C)	B (a compound having 3 or more and less than 10 is denoted as B)	–
CCCN1C(=O)CN(C)C(=O)[C@@H]2CCN2C(=O)[C@H]([C@@H](C)CC)NC(=O)[C@H](CC(C)C)N(C)C(=O)C[C@@H](C(=O)N(C)C)NC(=O)[C@H](C2CCCC2)N(C)C(=O)C2(CCC2)NC(=O)[C@@H]2C[C@@H](OCC)CN2C(=O)[C@H](CCc2ccc(C(F)(F)F)c(Cl)c2)NC(=O)CN(C)C(=O)[C@@H]1Cc1ccc(C(F)(F)F)cc1 [PP0378] ([NMeL]I[Aze][Sar][NPrPhe(4-CF3)][Sar][hPhe(3-Cl-4-CF3)][Hyp](Et)[Ac4c][NMeGly(cPent)]D-NMe2; lactam N-11)	–	–	110	–	–	B (a compound having 3 or more and less than 10 is denoted as B)	B (a compound having 3 or more and less than 10 is denoted as B)	–
CCCN1C(=O)[C@@H]2CCN2C(=O)[C@H]2N(CC2(C)C)C(=O)[C@H]([C@@H](C)CC)NC(=O)[C@H](CC(C)C)N(C)C(=O)C[C@@H](C(=O)N2CCOCC2)N(C)C(=O)[C@H](C2CCCC2)N(C)C(=O)C2(CCCC2)NC(=O)[C@@H]2CCCN2C(=O)[C@H](CCc2ccc(C(F)(F)F)c(Cl)c2)NC(=O)CN(C)C(=O)[C@@H]1Cc1ccc(C(F)(F)F)cc1 [PP0277] ([NMeL]I[X44][Aze][NPrPhe(4-CF3)][Sar][hPhe(3-Cl-4-CF3)]P[Ac5c][NMeGly(cPent)][NMeD]-Morpholide; lactam N-11)	–	–	6.7	–	–	C (A compound having a KD ratio of 0.1 or more and less than 3 is denoted as C)	C (A compound having a KD ratio of 0.1 or more and less than 3 is denoted as C)	–
CC[C@H](C)[C@@H]1NC(=O)[C@H](CC(C)C)N(C)C(=O)C[C@@H](C(=O)N2CCOCC2)N(C)C(=O)[C@H](C2CCCC2)N(C)C(=O)C2(CCCC2)NC(=O)[C@@H]2CCCN2C(=O)[C@H](CCc2ccc(C(F)(F)F)c(Cl)c2)NC(=O)CN(C)C(=O)[C@H](Cc2ccccc2)N2CCCC[C@@H](C2=O)N(C)C(=O)CN(C)C1=O [PP0529]	–	–	6.5	C (A compound having a KD ratio of 0.1 or more and less than 3 is denoted as C)	B (a compound having 3 or more and less than 10 is denoted as B)	–	–	–
CC[C@H](C)[C@@H]1NC(=O)[C@H](Cc2ccccc2)N(C)C(=O)C[C@@H](C(=O)N2CCOCC2)N(C)C(=O)[C@H](C2CCCC2)N(C)C(=O)C2(CCCC2)NC(=O)[C@@H]2CCCN2C(=O)[C@H](CCc2ccc(C(F)(F)F)c(Cl)c2)NC(=O)CN(C)C(=O)[C@H](Cc2ccc(F)cc2)N2CCCCC[C@@H](C2=O)N(C)C(=O)CN(C)C1=O [PP0961]	–	–	53.6	–	–	B (a compound having 3 or more and less than 10 is denoted as B)	B (a compound having 3 or more and less than 10 is denoted as B)	–
CCO[C@@H]1C[C@H]2C(=O)NC3(CCC3)C(=O)N(C)[C@@H](C3CCCC3)C(=O)N(C)[C@H](C(=O)N(C)C)CC(=O)N(C)[C@@H](CC)C(=O)N[C@@H]([C@@H](C)CC)C(=O)N(C)CC(=O)N(C)[C@H]3CCCCCN(C3=O)[C@@H](Cc3ccc(F)c(C)c3)C(=O)N(C)CC(=O)N[C@@H](CCc3cc(F)c(C(F)(F)F)c(F)c3)C(=O)N2C1 [PP0912]	–	–	40.5	–	–	B (a compound having 3 or more and less than 10 is denoted as B)	B (a compound having 3 or more and less than 10 is denoted as B)	–
CCCOC[C@H]1C(=O)N[C@@H]([C@@H](C)CC)C(=O)N(C)CC(=O)N(C)[C@H]2C/C=C\CCN(C2=O)[C@@H](Cc2ccc(C)cc2)C(=O)N(C)CC(=O)N[C@@H](CCc2cc(F)c(C(F)(F)F)c(F)c2)C(=O)N2C[C@H](CCC)C[C@H]2C(=O)NC2(CCC2)C(=O)N(C)[C@@H](C2CCCC2)C(=O)N(C)[C@H](C(=O)N(C)C)CC(=O)N1C [PP2232]	–	–	18.7	–	–	A (a compound having 10 or more and less than 20 is denoted as A)	A (a compound having 10 or more and less than 20 is denoted as A)	–
CC[C@H](C)[C@@H]1NC(=O)[C@H](CC(C)C)N(C)C(=O)C[C@@H](C(=O)N(C)C)N(C)C(=O)[C@H](C2CCCC2)N(C)C(=O)C2(CCCC2)NC(=O)[C@@H]2CCCN2C(=O)[C@H](CCc2ccc(C(F)(F)F)c(Cl)c2)NC(=O)CN(C)C(=O)[C@H](Cc2ccc(C)cc2)N2CC=C(C)C[C@@H](C2=O)N(C)C(=O)CN(C)C1=O [PP0620]	–	–	38.4	C (A compound having a KD ratio of 0.1 or more and less than 3 is denoted as C)	C (A compound having a KD ratio of 0.1 or more and less than 3 is denoted as C)	–	–	–
CCCN1C(=O)[C@@H]2CCN2C(=O)[C@@H]2CCCCN2C(=O)[C@H]([C@@H](C)CC)NC(=O)[C@H](CC(C)C)N(C)C(=O)C[C@@H](C(=O)N2CCOCC2)N(C)C(=O)[C@H](C2CCCC2)N(C)C(=O)C2(CCCC2)NC(=O)[C@@H]2CCCN2C(=O)[C@H](CCc2ccc(C(F)(F)F)c(Cl)c2)NC(=O)CN(C)C(=O)[C@@H]1Cc1ccc(C)cc1 [PP0070] ([NMeL]I[Pip][Aze][NPrPhe(4-Me)][Sar][hPhe(3-Cl-4-CF3)]P[Ac5c][NMeGly(cPent)][NMeD]-Morpholide; lactam N-11)	–	–	2.1	–	–	C (A compound having a KD ratio of 0.1 or more and less than 3 is denoted as C)	B (a compound having 3 or more and less than 10 is denoted as B)	–
CCO[C@@H]1C[C@H]2C(=O)NC3(CC(C)(C)C3)C(=O)N(C)[C@@H](C3CCCC3)C(=O)N(C)[C@H](C(=O)N(C)C)CC(=O)N(C)[C@@H](CC(C)C)C(=O)N[C@@H]([C@@H](C)CC)C(=O)N(C)CC(=O)N(C)[C@H]3C/C=C\CCN(C3=O)[C@@H](Cc3ccc(C(C)(F)F)cc3)C(=O)N(C)CC(=O)N[C@@H](CCc3ccc(C(F)(F)F)c(OC)c3)C(=O)N2C1 [PP2690]	AA (a compound having 20 or more is denoted as AA)	A (a compound having 10 or more and less than 20 is denoted as A)	–	–	–	–	–	3

Reference: patent US20240158446A1, “CYCLIC COMPOUND HAVING SELECTIVE INHIBITORY ACTION ON KRAS OVER HRAS AND NRAS” (CHUGAI SEIYAKU KABUSHIKI KAISHA, priority 2021, published 2024)
